Literature values in US20190046547A1, “COMPOSITIONS AND METHODS FOR TREATING CHRONIC WOUNDS” (Hackensack University Medical Center, priority 2016, published 2019).

System: infected pneumonectomy cavity
Conditions: single case

## OC[C@H]1O[C@@](CO)(O[C@H]2O[C@H](CO)[C@@H](O)[C@H](O)[C@H]2O)[C@@H](O)[C@@H]1O [granulated sugar]
  adverse events: severe hyponatremia and acute renal failure
